Key:
[1] = test system: multifocal Ta, T1, Tis tumors; experiment: Recurrence in patients with multifocal tumors (Example 3, FIG. 9); type: in vivo
Procedure: Sixty-five of patients from whom 3 or more Ta, T1,or Tis tumors had been removed were treated weekly for six weeks with the high efficacy therapy as described above in example 1 and 52 patients from whom 3 or more Ta, T1, or Tis tumors had been removed were treated weekly for six weeks with standard MMC intravsical therapy as described in example 1. All patients received the follow-up described in example 1.

T1 tumors = experiment: Recurrence in patients with T1 tumors (Kaplan-Meier); type: in vivo
Text: The Kaplan-Meier Curve is a conventional tool used to project treatment outcome such as the % of patients who remain alive or free of disease at a certain time interval. (Martin Bland, Introduction to Medical Statistics (1994) Oxford Press). The Kaplan Meier Curve was used to compare the customary experimental therapy to the high efficacy therapy. When compared to the customary experimental therapy, the high efficacy therapy increased the percentage of all patients who are projected to remain recurrence-freefor longer than 5 years from 20 to 41%. The improvement was similar for patients with T1 tumors which were growing in the deeper bladder tissue layers (i.e. increase from 16% to 44%) and for patients with Ta tumors which were growing in the urothelial surface of the bladder (i.e. increase from 20% to 37%).

[2] = previous studies, cited from earlier work
[3] = test system: recurrent Ta, T1 or Tis tumors; experiment: Recurrence in patients with recurrent tumors (Example 2, FIG. 12); type: in vivo; settings: for median time to recurrence / projected 5-year tumor recurrence free rate: recurrent tumors
Procedure: Seventy-seven patients from whom recurrent Ta, T1 or Tis tumors had been resected were treated weekly for six weeks with the high efficacy therapy as described above in example 1 and 68 patients from whom recurrent Ta, T1 or Tis tumors had been resected were treated by the customary experimental therapy as described in example 1. All patients had undergone at least one previous round of therapy, to several previous rounds of resection plus chemotherapy consisting of treatment with BCG, MMC, doxorubicin and doxorubicin and cisplatin. For example, 44 patients treated with the high efficacy treatment and 42 patients treated with the customary experimental method had at least two tumor resections. Thirty-eight patients in each of the two treatment arms fad received previous tumor resections plus at least one series of adjuvant chemotherapy. All patients were evaluated as described in example 1.

[4] = Toxicity comparison of high efficacy and customary intravesical MMC therapy (Table 1); type: in vivo, patients
aneuploid tumors = experiment: Recurrence in patients with aneuploid tumors; type: in vivo; settings: high efficacy therapy
[5] = test system: superficial bladder carcinomas; settings: customary experimental MMC, weekly, 1 mg/ml in 20-40 ml, six to eight weeks; cited from earlier work
[6] = Overall bladder wall exposure to MMC: urinary AUC, C^n×T, urine production and pH (Table 3); type: in vivo, patients; settings: for Urinary AUC / Urinary C^n × T: mean ± standard deviation; for Urinary C^n × T: n = 1.24
Text: A commonly used measure of drug exposure for anticancer agent is the product of exposure concentration and duration, or AUC (area under the curve). […] The drug exposure in the urinary bladder can be determined from the drug concentration in the urine and can serve as a measure of exposure to the tumor tissue.

[7] = Blood levels of MMC during high efficacy therapy; type: in vivo, patients
[8] = test system: low grade tumors (grade I and grade II); experiment: Recurrence in patients with low grade tumors (Example 5); type: in vivo
Procedure: Eighty-one patients from whom low grade tumors (i.e., grade I and grade II) had been removed were treated weekly for six weeks with the high efficacy therapy as described above in example 1 and 64 patients from whom low grade tumors were had been removed were treated weekly for six weeks with the customary experimental therapy as described in example 1. All patients were evaluated as described in example 1. The median time to recurrence was 637 days for patients treated by the high efficacy treatment versus 339 days for patients treated by the customary experimental treatment. The projected 5-year recurrence free value is 35% for the high efficacy treatment and 21% for the customary experimental treatment.

[9] = in vitro, previous results; cited from earlier work
[10] = high efficacy vs customary experimental therapy
[11] = customary experimental treatment

COC12C(COC(N)=O)C3=C(C(=O)C(C)=C(N)C3=O)N1CC1NC12 (centres unmarked) [MMC]
projected 5-year recurrence free rate ([1]; customary experimental therapy, multifocal tumors): 17%
projected 5-year recurrence free rate ([1]; high efficacy therapy, multifocal tumors): 32%
delaying and preventing tumor recurrence, vs customary therapy ([1]; high efficacy therapy, multiple tumors): more effective
median time to tumor recurrence ([1]; standard treatment (so in the source), multifocal tumors): 488 days
percentage of patients projected to remain recurrence-free for longer than 5 years (T1 tumors; customary experimental therapy): 16%
percentage of patients projected to remain recurrence-free for longer than 5 years (T1 tumors; high efficacy therapy): 44%
systemic dose without significant host toxicity ([2]; MMC given systemically): ≤ 50 mg
blood level of MMC without significant host toxicity [2]: below 400 ng/ml
median time to recurrence ([3]; customary experimental therapy): 339 days
projected 5-year tumor recurrence free rate ([3]; customary experimental therapy): 26%
median time to recurrence ([3]; high efficacy therapy): 754 days
projected 5-year tumor recurrence free rate ([3]; high efficacy therapy): 39%
delaying and preventing tumor recurrence, vs customary therapy ([3]; high efficacy therapy, recurrent tumors despite other adjuvant therapies): more effective
Allergy ([4]; Customary (n = 96)): 9 % of patients
Any toxicity ([4]; Customary (n = 96)): 64 % of patients
Cramp ([4]; Customary (n = 96)): 17 % of patients
Cystitis ([4]; Customary (n = 96)): 18 % of patients
Dermal ([4]; Customary (n = 96)): 10 % of patients
Dysuria ([4]; Customary (n = 96)): 19 % of patients
Fatigue ([4]; Customary (n = 96)): 20 % of patients
Fever ([4]; Customary (n = 96)): 5 % of patients
Hematuria ([4]; Customary (n = 96)): 24 % of patients
Leukopenia ([4]; Customary (n = 96)): 0 % of patients
Malaise ([4]; Customary (n = 96)): 19 % of patients
Nausea ([4]; Customary (n = 96)): 9 % of patients
Pain ([4]; Customary (n = 96)): 17 % of patients
Thrombocytopenia ([4]; Customary (n = 96)): 0 % of patients
Urgency ([4]; Customary (n = 96)): 28 % of patients
Urinary frequency ([4]; Customary (n = 96)): 33 % of patients
Vomiting ([4]; Customary (n = 96)): 5 % of patients
Allergy ([4]; High efficacy (n = 104)): 13 % of patients
Any toxicity ([4]; High efficacy (n = 104)): 72 % of patients
Cramp ([4]; High efficacy (n = 104)): 15 % of patients
Cystitis ([4]; High efficacy (n = 104)): 24 % of patients
Dermal ([4]; High efficacy (n = 104)): 15 % of patients
Dysuria ([4]; High efficacy (n = 104)): 35 % of patients
Fatigue ([4]; High efficacy (n = 104)): 19 % of patients
Fever ([4]; High efficacy (n = 104)): 5 % of patients
Hematuria ([4]; High efficacy (n = 104)): 26 % of patients
Leukopenia ([4]; High efficacy (n = 104)): 1 % of patients
Malaise ([4]; High efficacy (n = 104)): 18 % of patients
Nausea ([4]; High efficacy (n = 104)): 12 % of patients
Pain ([4]; High efficacy (n = 104)): 17 % of patients
Thrombocytopenia ([4]; High efficacy (n = 104)): 0 % of patients
Urgency ([4]; High efficacy (n = 104)): 22 % of patients
Urinary frequency ([4]; High efficacy (n = 104)): 26 % of patients
Vomiting ([4]; High efficacy (n = 104)): 4 % of patients
bone marrow toxicity ([4]; high efficacy therapy): did not exhibit any signs of bone marrow toxicity
dysuria, frequency and severity ([4]; high efficacy therapy): higher frequency of dysuria. But this toxicity was mild and did not result in termination of treatment
other toxicities (dysuria, cystitis, hematuria, cramps), severity ([4]; high efficacy therapy, a small number of patients): mild
delaying and preventing tumor recurrence, vs customary therapy (aneuploid tumors): more effective
additional patients without recurrent tumor at 1 year vs transurethral resection alone [5]: 1-13%
Urinary AUC ([6]; customary experimental therapy): 24.2 ± 14.7 mg·min/mL
Urinary C^n × T ([6]; customary experimental therapy): 97.2 ± 77.08 mg^n.min/ml
Urinary AUC ([6]; high efficacy therapy): 57.6 ± 37.2 mg·min/mL
Urinary C^n × T ([6]; high efficacy therapy): 291 ± 283 mg^n.min/ml
average drug exposure measured as AUC, high efficacy relative to customary [6, 10]: 2 times
average drug exposure measured as C^n×T, high efficacy relative to customary [6, 10]: 2.4 times
blood levels of MMC, in most instances [7]: less than 5 ng/ml
levels of MMC in the blood of the patients, upper bound [7]: ≤ 50 ng/mL
median time to recurrence [8, 11]: 339 days
projected 5-year recurrence free value [8, 11]: 21%
median time to recurrence ([8]; high efficacy treatment): 637 days
projected 5-year recurrence free value ([8]; high efficacy treatment): 35%
relative importance of drug concentration and treatment duration [9]: the drug concentration is more important than treatment duration
